Test results taken from ChEMBL document CHEMBL4393707, “Synthesis and evaluation of new quinazolin-4(3H)-one derivatives as potent antibacterial agents against multidrug resistant Staphylococcus aureus and Mycobacterium tuberculosis” (Eur J Med Chem, 2019).
Converted amounts (≈) assume the structure as drawn.

Assays:
Type in all cases: functional
[1] = test system: Mycobacterium tuberculosis; assay: Antitubercular activity against Mycobacterium tuberculosis H37Rv after 7 days by resazurin dye based assay; conditions: 168 h
Escherichia coli = assay: Antibacterial activity against Escherichia coli ATCC 25922 incubated for 16 to 18 hrs by broth microdilution assay
Pseudomonas aeruginosa = assay: Antibacterial activity against Pseudomonas aeruginosa ATCC 27853 incubated for 16 to 18 hrs by broth microdilution assay
Klebsiella pneumoniae = assay: Antibacterial activity against Klebsiella pneumoniae ATCC BAA-1705 incubated for 16 to 18 hrs by broth microdilution assay
Acinetobacter baumannii = assay: Antibacterial activity against Acinetobacter baumannii BAA1605 incubated for 16 to 18 hrs by broth microdilution assay
Staphylococcus aureus = assay: Antibacterial activity against Staphylococcus aureus ATCC 29213 incubated for 16 to 18 hrs by broth microdilution assay

Compound | MIC [1] | MIC (Escherichia coli) | MIC (Pseudomonas aeruginosa) | MIC (Klebsiella pneumoniae) | MIC (Acinetobacter baumannii) | MIC (Staphylococcus aureus)
Cc1nc2cc(-n3cc(COc4ccc5nc(C)n(-c6ccccc6)c(=O)c5c4)nn3)ccc2c(=O)n1-c1ccccc1 | > 64 µg/mL | > 64 µg/mL | > 64 µg/mL | > 64 µg/mL | > 64 µg/mL | > 64 µg/mL
Cc1nc2ccc(OCc3cn(-c4cccc(Cl)c4)nn3)cc2c(=O)n1Cc1ccccc1 | > 64 µg/mL | > 64 µg/mL | > 64 µg/mL | > 64 µg/mL | > 64 µg/mL | > 64 µg/mL
Cc1cc(-n2cc(CNc3ccc4c(=O)n(-c5ccccc5)c(C)nc4c3)nn2)ccc1[N+](=O)[O-] | > 64 µg/mL | > 64 µg/mL | > 64 µg/mL | > 64 µg/mL | > 64 µg/mL | > 64 µg/mL
N#Cc1ccc(/C=C/c2nc3cc(-c4ccccc4)ccc3c(=O)n2-c2cccc(Cl)c2)cc1 | > 64 µg/mL | > 64 µg/mL | > 64 µg/mL | > 64 µg/mL | > 64 µg/mL | > 64 µg/mL
COc1ccc(-c2ccc3nc(/C=C/c4ccccc4)n(-c4ccccc4)c(=O)c3c2)cc1 | 64 µg/mL (≈ 149 µM) | > 64 µg/mL | > 64 µg/mL | > 64 µg/mL | > 64 µg/mL | > 64 µg/mL
N#Cc1ccc(/C=C/c2nc3ncccc3c(=O)n2-c2ccc3c(c2)OCCO3)cc1 | > 64 µg/mL | > 64 µg/mL | > 64 µg/mL | > 64 µg/mL | > 64 µg/mL | > 64 µg/mL
CO[C@H]1/C=C/O[C@@]2(C)Oc3c(C)c(O)c4c(O)c(c(/C=N/N5CCN(C)CC5)c(O)c4c3C2=O)NC(=O)/C(C)=C\C=C\[C@H](C)[C@H](O)[C@@H](C)[C@@H](O)[C@@H](C)[C@H](OC(C)=O)[C@@H]1C [RIFAMPIN] | 0.03 µg/mL (≈ 0.0365 µM) | – | – | – | – | 0.015 µg/mL (≈ 0.0182 µM)
N#Cc1ccc(/C=C/c2nc3ncccc3c(=O)n2-c2ccc(C#N)cc2)cc1 | > 64 µg/mL | > 64 µg/mL | > 64 µg/mL | > 64 µg/mL | > 64 µg/mL | 64 µg/mL (≈ 170 µM)
COc1ccc(-c2cn(-c3ccc4c(=O)n(-c5ccccc5)c(C)nc4c3)nn2)cc1 | 64 µg/mL (≈ 156 µM) | > 64 µg/mL | > 64 µg/mL | > 64 µg/mL | > 64 µg/mL | > 64 µg/mL
COC(=O)Cn1c(/C=C/c2ccc(C#N)cc2)nc2ccccc2c1=O | > 64 µg/mL | > 64 µg/mL | > 64 µg/mL | > 64 µg/mL | > 64 µg/mL | > 64 µg/mL
COc1ccc(-c2ccc3nc(C)n(-c4ccccc4)c(=O)c3c2)cc1 | > 64 µg/mL | > 64 µg/mL | > 64 µg/mL | > 64 µg/mL | > 64 µg/mL | 32 µg/mL (≈ 93.5 µM)
N#Cc1ccc(/C=C/c2nc3ccc(OCc4cn(-c5ccc(F)c(Cl)c5)nn4)cc3c(=O)n2Cc2ccccc2)cc1 | > 64 µg/mL | > 64 µg/mL | > 64 µg/mL | > 64 µg/mL | > 64 µg/mL | > 64 µg/mL
GENTAMICIN | – | – | – | – | – | 0.25 µg/mL
N#Cc1ccc(/C=C/c2nc3ccccc3c(=O)n2CCc2c[nH]c3ccccc23)cc1 | > 64 µg/mL | > 64 µg/mL | > 64 µg/mL | > 64 µg/mL | > 64 µg/mL | > 64 µg/mL
CCCCCCCCCC(=O)N[C@@H](Cc1c[nH]c2ccccc12)C(=O)N[C@H](CC(N)=O)C(=O)N[C@@H](CC(=O)O)C(=O)N[C@@H]1C(=O)NCC(=O)N[C@@H](CCCN)C(=O)N[C@@H](CC(=O)O)C(=O)N[C@H](C)C(=O)N[C@@H](CC(=O)O)C(=O)NCC(=O)N[C@H](CO)C(=O)N[C@@H]([C@H](C)CC(=O)O)C(=O)N[C@@H](CC(=O)c2ccccc2N)C(=O)O[C@@H]1C | – | – | – | – | – | 0.5 µg/mL (≈ 0.309 µM)
N#Cc1ccc(/C=C/c2nc3ncccc3c(=O)n2-c2cccc(C#N)c2)cc1 | > 64 µg/mL | > 64 µg/mL | > 64 µg/mL | > 64 µg/mL | > 64 µg/mL | > 64 µg/mL
N#Cc1ccc(/C=C/c2nc3cc(-n4cc(-c5ccccc5)nn4)ccc3c(=O)n2-c2ccccc2)cc1 | > 64 µg/mL | > 64 µg/mL | > 64 µg/mL | > 64 µg/mL | > 64 µg/mL | > 64 µg/mL
CC(C)(O/N=C(\C(=O)N[C@@H]1C(=O)N2C(C(=O)[O-])=C(C[n+]3ccccc3)CS[C@H]12)c1csc(N)n1)C(=O)O [CEFTAZIDIME] | – | – | – | – | – | 16 µg/mL (≈ 29.3 µM)
N#Cc1ccc(/C=C/c2nc3ccccc3c(=O)n2Nc2ccc(C(F)(F)F)cc2)cc1 | > 64 µg/mL | > 64 µg/mL | > 64 µg/mL | > 64 µg/mL | > 64 µg/mL | > 64 µg/mL
Cc1nc2cc(NCc3cn(-c4ccc(F)c(Cl)c4)nn3)ccc2c(=O)n1-c1ccccc1 | > 64 µg/mL | > 64 µg/mL | > 64 µg/mL | > 64 µg/mL | > 64 µg/mL | > 64 µg/mL
N#Cc1ccc(/C=C/c2nc3ccccc3c(=O)n2Cc2ccc(F)cc2)cc1 | > 64 µg/mL | > 64 µg/mL | > 64 µg/mL | > 64 µg/mL | > 64 µg/mL | > 64 µg/mL
Cc1nc2cc(-n3cc(-c4ccc(Br)cc4)nn3)ccc2c(=O)n1-c1ccccc1 | 64 µg/mL (≈ 140 µM) | > 64 µg/mL | > 64 µg/mL | > 64 µg/mL | > 64 µg/mL | 64 µg/mL (≈ 140 µM)

Compound | MIC [1] | MIC (Escherichia coli) | MIC (Pseudomonas aeruginosa) | MIC (Klebsiella pneumoniae) | MIC (Acinetobacter baumannii) | MIC (Staphylococcus aureus)
Cc1ccc(C)c(-n2c(/C=C/c3ccc(C#N)cc3)nc3ncccc3c2=O)c1 | > 64 µg/mL | > 64 µg/mL | > 64 µg/mL | > 64 µg/mL | > 64 µg/mL | > 64 µg/mL
Cc1cccc(-n2c(/C=C/c3ccc(C#N)cc3)nc3ncccc3c2=O)c1C | > 64 µg/mL | > 64 µg/mL | > 64 µg/mL | > 64 µg/mL | > 64 µg/mL | > 64 µg/mL
Cc1ccc(-c2cn(-c3ccc4c(=O)n(-c5ccccc5)c(C)nc4c3)nn2)cc1 | > 64 µg/mL | > 64 µg/mL | > 64 µg/mL | > 64 µg/mL | > 64 µg/mL | > 64 µg/mL
COC(=O)Cn1c(/C=C/c2ccc(C#N)cc2)nc2ccc(OCc3cn(-c4ccc(F)c(Cl)c4)nn3)cc2c1=O | > 64 µg/mL | > 64 µg/mL | > 64 µg/mL | > 64 µg/mL | > 64 µg/mL | > 64 µg/mL
N#Cc1ccc(/C=C/c2nc3ccccc3c(=O)n2-c2ccc(O)cc2C(=O)O)cc1 | > 64 µg/mL | > 64 µg/mL | > 64 µg/mL | > 64 µg/mL | > 64 µg/mL | > 64 µg/mL
CC(C)(C)c1ccc(-n2c(/C=C/c3ccc(C#N)cc3)nc3ccccc3c2=O)cc1 | > 64 µg/mL | > 64 µg/mL | > 64 µg/mL | > 64 µg/mL | > 64 µg/mL | > 64 µg/mL
C=CCOc1cccc(-n2c(/C=C/c3ccc(C#N)cc3)nc3cccc(F)c3c2=O)c1 | > 64 µg/mL | > 64 µg/mL | > 64 µg/mL | > 64 µg/mL | > 64 µg/mL | 64 µg/mL (≈ 151 µM)
Cc1nc2ccc(OCc3cn(-c4ccc(Cl)cc4)nn3)cc2c(=O)n1Cc1ccccc1 | > 64 µg/mL | > 64 µg/mL | > 64 µg/mL | > 64 µg/mL | > 64 µg/mL | > 64 µg/mL
C#Cc1cccc(-n2c(/C=C/c3ccc(C#N)cc3)nc3ncccc3c2=O)c1 | > 64 µg/mL | > 64 µg/mL | > 64 µg/mL | > 64 µg/mL | > 64 µg/mL | > 64 µg/mL
Cc1cc(C)cc(OCc2cn(-c3ccc4c(=O)n(-c5cccc(Cl)c5)c(C)nc4c3)nn2)c1 | > 64 µg/mL | > 64 µg/mL | > 64 µg/mL | > 64 µg/mL | > 64 µg/mL | > 64 µg/mL
Cc1nc2cc(-n3cc(-c4ccccc4)nn3)ccc2c(=O)n1-c1ccccc1 | > 64 µg/mL | > 64 µg/mL | > 64 µg/mL | > 64 µg/mL | > 64 µg/mL | > 64 µg/mL
CN(C)c1ccc(O)c2c1C[C@H]1C[C@H]3[C@H](N(C)C)C(O)=C(C(N)=O)C(=O)[C@@]3(O)C(O)=C1C2=O [MINOCYCLINE] | – | – | – | – | – | 0.125 µg/mL (≈ 0.273 µM)
N#Cc1ccc(/C=C/c2nc3ccccc3c(=O)n2Cc2ccc(Cl)c(Cl)c2)cc1 | > 64 µg/mL | > 64 µg/mL | > 64 µg/mL | > 64 µg/mL | > 64 µg/mL | > 64 µg/mL
Cc1cc(-n2cc(CNc3ccc4c(=O)n(-c5ccccc5)c(C)nc4c3)nn2)cc(C)c1C | > 64 µg/mL | > 64 µg/mL | > 64 µg/mL | > 64 µg/mL | > 64 µg/mL | > 64 µg/mL
N#Cc1ccc(/C=C/c2nc3ccccc3c(=O)n2-c2cccnc2)cc1 | > 64 µg/mL | > 64 µg/mL | > 64 µg/mL | > 64 µg/mL | > 64 µg/mL | 64 µg/mL (≈ 183 µM)
Cc1nc2ccc(OCc3cn(Cc4ccc(Br)cc4)nn3)cc2c(=O)n1-c1ccccc1 | > 64 µg/mL | > 64 µg/mL | > 64 µg/mL | > 64 µg/mL | > 64 µg/mL | 64 µg/mL (≈ 127 µM)
N#Cc1ccc(/C=C/c2nc3cccc(F)c3c(=O)n2-c2cccc(C#N)c2)cc1 | > 64 µg/mL | > 64 µg/mL | > 64 µg/mL | > 64 µg/mL | > 64 µg/mL | 32 µg/mL (≈ 81.6 µM)
C#CCOc1ccc2nc(/C=C/c3ccc(C#N)cc3)n(Cc3ccccc3)c(=O)c2c1 | > 64 µg/mL | > 64 µg/mL | > 64 µg/mL | > 64 µg/mL | > 64 µg/mL | > 64 µg/mL
CCC(C)(C)c1ccc(OCc2cn(-c3ccc4c(=O)n(-c5cccc(Cl)c5)c(C)nc4c3)nn2)cc1 | > 64 µg/mL | > 64 µg/mL | > 64 µg/mL | > 64 µg/mL | > 64 µg/mL | > 64 µg/mL
N#Cc1ccc(/C=C/c2nc3ccccc3c(=O)n2-c2cccc3ccccc23)cc1 | > 64 µg/mL | > 64 µg/mL | > 64 µg/mL | > 64 µg/mL | > 64 µg/mL | > 64 µg/mL
C#CCOc1ccc2nc(/C=C/c3ccc(C#N)cc3)n(CC(=O)OC)c(=O)c2c1 | > 64 µg/mL | > 64 µg/mL | > 64 µg/mL | > 64 µg/mL | > 64 µg/mL | > 64 µg/mL
NNC(=O)c1ccncc1 [ISONIAZID] | 0.03 µg/mL (≈ 0.219 µM) | – | – | – | – | –
